In brackets after ≈: the same amount, converted by molar mass. Several values for one entry are separate records, joined by “and”; a condition that tells them apart may be missing. Equal values may be shown once. Read-outs that look alike come from different tables or passages of the source.

For series [1], the system named is lung NCI-H460, breast MCF7, CNS SF-268. Put plainly: 3-cell line one dose primary anticancer assay (NCI). It is filed as cell-based, human. The settings on record: growth percentage after 48 hours, at 100 μM. The protocol: In preliminary tests, four compounds (1B14a, 1C44, 1C45, and 1C46) were chosen by NIH-NCI for in vitro screening. See Drug discovery and development program, National Cancer Institute, Bethesda, (NCI), http://dtp.nci.nih.gov. All tetraoxanes were evaluated in the 3-cell line (lung—NCI-H460, breast—MCF7, CNS-SF-268) one dose primary anticancer assay: growth percentage after 48 hours, at 100 μM concentration of tested compound. Two compounds were eliminated at this step (1B14a and 1C46), while the acid 1C44 and primary amide 1C45 were evaluated against the full panel of 60 human tumor cell lines starting with 10^−4 M concentration of investigated compounds.

Series [2] relates to Mycobacterium tuberculosis H37Rv (ATCC 27294). Put plainly: Primary screen, Microplate Alamar Blue Assay (MABA), percent inhibition. It is filed as cell-based. The conditions noted are these: Mycobacterium tuberculosis, primary screening at 6.25 μg/ml. In outline:
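Single-concentration screen at 6.25 μg/ml (or molar equivalent of the heaviest congener in a series) against H37Rv grown in BACTEC 12B medium. Growth read by Microplate Alamar Blue Assay, reported as percent inhibition.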

Series [3] relates to D6 and W2 P. falciparum clones. It is filed as cell-based, Plasmodium falciparum. The settings on record: for Resistance Index: IC50 (W2)/IC50 (D6) ratio; for times more active than bis(1,1-dioxy-2-methylcyclohexane): antimalarial activity versus literature tetraoxane.
The test system of another series is M. tuberculosis H37Rv. Put plainly: Minimum inhibitory concentration (MIC) in the MABA. It is filed as cell-based, Mycobacterium tuberculosis. The settings on record: Mycobacterium tuberculosis, H37RV. The essentials:
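Run under the NIAID TAACF screening program against M. tuberculosis by fluorescence read-out. MIC taken as the lowest concentration giving 90% reduction in fluorescence relative to controls.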

Series [4] has as its system Plasmodium falciparum chloroquine-susceptible strain D6. Kind of series: In vitro antimalarial drug susceptibility assay (radiolabeled hypoxanthine incorporation), strain D6. It is filed as cell-based. The settings on record: for Strain D6 IC50: growth inhibition, chloroquine-susceptible strain D6, 66 h incubation; for IC50: Plasmodium falciparum, D6, 66 h, read-out: Strain D6 IC50, growth inhibition, chloroquine-susceptible strain D6, 66 h incubation.

Series [5] deals with Plasmodium falciparum chloroquine-resistant strain W2. Put plainly: microbe, parasite or virus in culture. It is filed as cell-based. The settings on record: for Strain W2 IC50: growth inhibition, chloroquine-resistant strain W2, 66 h incubation; for IC50: Plasmodium falciparum, W2, 66 h, read-out: Strain W2 IC50, growth inhibition, chloroquine-resistant strain W2, 66 h incubation.

The subject of series [6] is M. avium strains 100, 101, 108, 109, 116. Put plainly: M. avium MIC, Microtiter. It is filed as cell-based, Mycobacterium avium.
Series [7] concerns VERO cells. Put plainly: cells. The settings on record: Chlorocebus sabaeus, Table 5.
Series [8] concerns VERO cells. The settings on record: for SI (selectivity index): ratio of IC50 in VERO cells to MIC (M. tuberculosis H37Rv).
A further series is described as follows: in vitro. The settings on record: African green monkey, Cytotoxcity (IC50), Table 3; VERO cell line, 72 hours exposure.
[9] abbreviates: Table 3, H37Rv, read-out: Inhibition (%).
The mark [10] stands for this setting: Table 5, Alamar assay, read-out: % Inhib.
[11] abbreviates: Table 5, Alamar assay, M. tuberculosis H37Rv, read-out: MIC.

As a reminder, the melting point is the temperature of the solid-liquid transition. `CCCNC(=O)CC[C@@H](C)[C@H]1CC[C@H]2[C@@H]3[C@H](OC(C)=O)C[C@@H]4CC(OO)(OO)CC[C@]4(C)[C@H]3C[C@H](OC(C)=O)[C@]12C` registered a melting point of 120 to 129 °C.

What is called MIC is the least concentration at which growth counts as inhibited. On to `COC(=O)CCC(C)[C@H]1CCC2C3C(C[C@H](OC(C)=O)[C@@]21C)[C@@]1(C)CCC2(C[C@H]1C[C@H]3OC(C)=O)OOC1(CCC(c3ccccc3)CC1)OO2` (single isomer, unassigned) [Compound 1B14a, Methyl 7α,12α-diacetoxy-5β-cholan-24-oate-3-spiro-6′-(1′,2′,4′,5′-tetraoxacyclohexane)-3′-spiro-1″-((4″R or S)- and (4″S or R)-phenyl)cyclohexane], for which the “outcome of one dose primary anticancer assay” value in series [1] is “eliminated”. Moreover, the inhibition at 6.25 µg/mL in series [2] (setting [9]) and in series [2] (setting [10]) was 37% throughout. In addition, in series [3], the “Resistance Index” value is given as 0.93. Moreover, the MIC in the series on M. tuberculosis H37Rv (Table 3, H37Rv, read-out: MIC) was greater than 6.25 µg/mL; in the series with M. tuberculosis H37Rv (setting [11]), greater than 6.25 µg/mL. Also, in series [4], the “Strain D6 IC50” value is 0.01256 µg/mL. For the same compound, the “Strain W2 IC50” value in series [5] was found to be 0.01172 µg/mL.

Take `CNC(=O)CCC(C)[C@H]1CCC2C3C(C[C@H](OC(C)=O)[C@@]21C)[C@@]1(C)CCC2(C[C@H]1C[C@H]3OC(C)=O)OOC1(CCC(c3ccccc3)CC1)OO2` (single isomer, unassigned) [Compound 1C46, N-Methyl-7α,12α-Diacetoxy-5β-cholan-24-amide-3-spiro-6′-(1′,2′,4′,5′-tetraoxacyclohexane)-3′-spiro-1″-((4″R or S)-phenyl)cyclohexane]: the “outcome of one dose primary anticancer assay” value in series [1] is “eliminated”. For the same compound, the inhibition at 6.25 µg/mL stood at 71% in [2] (Table 3, H37Rv) and 71% in [2] (setting [10]). The “Resistance Index” value in [3] was 0.79. Further, the MIC in the series on M. tuberculosis H37Rv (Table 3) is 6.25 µg/mL (≈ 8.8 µM); in the series with M. tuberculosis H37Rv (setting [11]), greater than 6.25 µg/mL. Moreover, in [4], the “Strain D6 IC50” value was found to be 0.00883 µg/mL. Also, in [5], the “Strain W2 IC50” value turned out to be 0.00696 µg/mL.

As a reminder, the IC50 is the concentration that gives 50% inhibition. `COC(=O)CCC(C)[C@H]1CCC2C3C(C[C@H](OC(C)=O)[C@@]21C)[C@@]1(C)CCC2(C[C@H]1C[C@H]3OC(C)=O)OOC1(CCCCC1C)OO2` (stereo partly drawn) [8d/1B06, Methyl 7α,12α-Diacetoxy-5β-cholan-24-oate-3-spiro-6′-(1′,2′,4′,5′-tetraoxacyclohexane)-3′-spiro-1″-(2″-methyl)cyclohexane] displayed a melting point of 204 to 207 °C. Also, the inhibition at 6.25 µg/mL in series [2] (setting [10]) was found to be 29%. For the same compound, in series [3], the “Resistance Index” value is 0.58 and the “times more active than bis(1,1-dioxy-2-methylcyclohexane)” value is “about 2 times”. In addition, in the series with M. tuberculosis H37Rv (setting [11]), the MIC was greater than 6.25 µg/mL. In addition, the IC50 in [4] was determined as 0.0175 µg/mL (≈ 0.027 µM). Further, the IC50 in series [5] is 0.0102 µg/mL (≈ 0.0156 µM).

Compound `COC(=O)CCC(C)[C@H]1CCC2C3C(C[C@H](OC(C)=O)[C@@]21C)[C@@]1(C)CCC2(C[C@H]1C[C@H]3OC(C)=O)OOC1(OO2)C(C)CCCC1C` (stereo partly drawn) [8e/1B07, Methyl 7α,12α-diacetoxy-5β-cholan-24-oate-3-spiro-6′-(1′,2′,4′,5′-tetraoxacyclohexane)-3′-spiro-1″-(2″,6″-dimethyl)cyclohexane] registered a melting point of 213 to 215 °C. Also, the inhibition at 6.25 µg/mL in series [2] (setting [10]) is 0%. Also, in [3] (D6 and W2 clones, Table 2), the “antimalarial activity in words” value was “inactive”. The “Resistance Index” value in series [3] amounted to 11.45. In the series on M. tuberculosis H37Rv (setting [11]), the MIC was greater than 6.25 µg/mL. Also, the IC50 in [4] turned out to be 0.0207 µg/mL (≈ 0.0312 µM). Moreover, the IC50 in [5] is 0.237 µg/mL (≈ 0.357 µM).

On to `CC(=O)O[C@H]1CC2C(C3CC[C@H](C(C)CCC(N)=O)[C@]31C)[C@H](OC(C)=O)C[C@@H]1CC3(CC[C@]21C)OOC1(CCCCC1C)OO3` (stereo partly drawn) [13/1C22, 7α,12α-Diacetoxy-5β-cholan-24-amide-3-spiro-6′-(1′,2′,4′,5′-tetraoxacyclohexane)-3′-spiro-1″-(2″-methyl)cyclohexane], for which, in series [2] (setting [10]), the inhibition at 6.25 µg/mL stood at 100%. The “Resistance Index” value in series [3] worked out at 0.64. The “times more active than bis(1,1-dioxy-2-methylcyclohexane)” value in series [3] was “ca. 3.5 times”. Moreover, the MIC in the series on M. tuberculosis H37Rv (setting [11]) was 0.2 µg/mL (≈ 0.316 µM); in series [6] (M. avium strain 101, MIC dilution 0.25-32), greater than 32 µg/mL; in series [6] (M. avium strain 108, MIC dilution 0.25-32) it was greater than 32 µg/mL; in series [6] (M. avium strain 109, MIC dilution 0.25-32), greater than 32 µg/mL; in series [6] (M. avium strain 116, MIC dilution 0.25-32) it was greater than 32 µg/mL; in [6] (Mycobacterium avium, M. avium strain 100, MIC dilution 0.25-32, read-out: MIC), greater than 32 µg/mL. For the same compound, the IC50 was 0.011 µg/mL (≈ 0.0173 µM) in [4] and 0.00705 µg/mL (≈ 0.0111 µM) in series [5].

Consider `CC(=O)O[C@H]1CC2C(C3CC[C@H](C(C)CCC(N)=O)[C@]31C)[C@H](OC(C)=O)C[C@@H]1CC3(CC[C@]21C)OOC1(CCC(C)CC1)OO3` (stereo partly drawn) [17/1C26, 7α,12α-Diacetoxy-5β-cholan-24-amide-3-spiro-6′-(1′,2′,4′,5′-tetraoxacyclohexane)-3′-spiro-1″-((4″R)-methyl)cyclohexane], for which the inhibition at 6.25 µg/mL in series [2] (setting [9]) and in series [2] (setting [10]) was 99% in each case. The IC50 is 3.49 µg/mL (≈ 5.51 µM) with VERO cells [7]; 3.49 µg/mL and 5.51 µM in the series “in vitro”. Moreover, in the series with VERO cells [8] (cytotoxicity in Vero cells versus antimalarial activity), the “SI (IC50 (Vero)/IC50 (D6 or W2))” value is reported as 9 500. In the series on VERO cells [8], the “SI (selectivity index)” value is recorded as 1.1. The “Resistance Index” value in series [3] and in series [3] (listed as 17) was 0.50 throughout. For the same compound, in series [3] (antimalarial activity), the “times more active than parent methyl ester 8g” value is on record as “ca. 9 times”. Also, in [3] (antimalarial activity in vitro), the “times as active as arteether” value was 2.4 times. Moreover, in series [3] (antimalarial activity in vitro), the “times more active than artelinic acid” value was “ca. 6 times”. In addition, the MIC with M. tuberculosis H37Rv (Table 3, H37Rv, read-out: MIC) was 3.13 µg/mL and 4.94 µM; with M. tuberculosis H37Rv (setting [11]) it was 3.13 µg/mL (≈ 4.94 µM). The “Strain D6 IC50” value in series [4] (listed as 17) amounted to 0.00074 µg/mL. For the same compound, in series [5] (listed as 17), the “Strain W2 IC50” value turned out to be 0.00037 µg/mL.

For `CCNC(=O)CCC(C)[C@H]1CCC2C3C(C[C@H](OC(C)=O)[C@@]21C)[C@@]1(C)CCC2(C[C@H]1C[C@H]3OC(C)=O)OOC1(CCC(C)CC1)OO2` (stereo partly drawn) [19/1C28, N-Ethyl-7α,12α-diacetoxy-5β-cholan-24-amide-3-spiro-6′-(1′,2′,4′,5′-tetraoxacyclohexane)-3″-spiro-1″-((4″R)-methyl)cyclohexane], the inhibition at 6.25 µg/mL in series [2] (setting [9]) worked out at 98%. In addition, the IC50 is 5.37 µg/mL (≈ 8.11 µM) with VERO cells [7]; 5.37 µg/mL and 8.11 µM in “in vitro”. The “SI (selectivity index)” value in the series with VERO cells [8] worked out at 1.7. In series [3], the “Resistance Index” value stood at 0.68. Further, the minimum inhibitory concentration (MIC) with M. tuberculosis H37Rv (Table 3, H37Rv, read-out: MIC) was 3.13 µg/mL and 4.73 µM; in the series with M. tuberculosis H37Rv (setting [11]), 3.13 µg/mL (≈ 4.73 µM). Also, the “Strain D6 IC50” value in series [4] was determined as 0.00384 µg/mL. For the same compound, in [5], the “Strain W2 IC50” value was 0.0026 µg/mL.

Turning to `CCCNC(=O)CCC(C)[C@H]1CCC2C3C(C[C@H](OC(C)=O)[C@@]21C)[C@@]1(C)CCC2(C[C@H]1C[C@H]3OC(C)=O)OOC1(CCC(C)CC1)OO2` (stereo partly drawn) [20/1C29, N-(n-Propyl)-7α,12α-diacetoxy-5β-cholan-24-amide-3-spiro-6′-(1′,2′,4′,5′-tetraoxacyclohexane)-3′-spiro-1″-((4″R)-methyl)cyclohexane], in series [2] (setting [9]), the inhibition at 6.25 µg/mL is 94%. In addition, the IC50 with VERO cells [7] is 8.34 µg/mL (≈ 12.3 µM); in “in vitro”, 8.34 µg/mL and 12.3 µM. Further, in the series with VERO cells [8], the “SI (selectivity index)” value stood at 1.3. The “Resistance Index” value in series [3] is 1.18. Also, the MIC in the series with M. tuberculosis H37Rv (Table 3, H37Rv, read-out: MIC) was 6.25 µg/mL and 9.25 µM; in the series on M. tuberculosis H37Rv (setting [11]), 6.25 µg/mL (≈ 9.25 µM). Also, the “Strain D6 IC50” value in [4] was determined as 0.00218 µg/mL. In addition, the “Strain W2 IC50” value in series [5] was determined as 0.00258 µg/mL.
